Assay results: patent US9296787B2, “Antitumor peptide and use thereof” (priority 2011, dated 2016)
Like-named read-outs stand apart in the source and are kept apart here. Positions of bridges follow the written chain, without caps; N, C: chain ends. Residues, ends and D or L forms follow the SMILES beside them. No end group written: not given here.

What was measured:
Format in all cases: cell-based
[1] = test system: mouse neuroblastoma cell line (N1E-115); details: for A450(-A620) After 24 hers: WST-8 absorbance after 24 hours; for A450(-A620) After 6 hers: WST-8 absorbance after 6 hours
Procedure: Some of the sample peptides obtained in Example 1 were tested for antitumor activity against target cultured tumor cells. Details of the assay are as described below.
(§1) As the tumor cells tested, a commercial mouse neuroblastoma cell line (N1E-115) was used. The cell line was cultured beforehand in a DMEM medium (i.e. Dulbecco MEM medium (DMEM medium, a Gibco product) containing 10% fetal bovine serum (FBS, a Gibco product), 2 mM of L-glutamine, 50 unit/mL of penicillin, and 50 μg/mL of streptomycin), and the number of cells per well in a 96-well plate was adjusted to approximately 5×10^3. The volume of the medium for this was 100 μL per well.
(§2) Subsequently, the stock solution of each sample peptide shown in Table 3 was added to each well to a peptide concentration in the well of 50 μM or 100 μM.
(§3) After the sample peptides were added as described above, the 96-well plate was placed in a CO2 incubator and cultured without agitation at 37° C. under 5% CO2. At the time of the peptide addition (at the start of treatment) and at 6 hours or 24 hours from the peptide addition and the start of incubation, the viability status of the cultured cells tested was analyzed with a commercial colorimetric assay kit. In particular, to each cell-culturing well, “water-soluble tetrazolium salt (WST-8)” was added as a colorimetric reagent; after two hours of incubation following the addition, the cell culture medium supplied with the colorimetric reagent was collected; and the level of inhibition of cell proliferation was evaluated by colorimetry, measuring the absorbance at a wavelength of 450 nm (values corrected with the absorbance at a wavelength of 620 nm, A450-A620) based on reduction of tetrazolium salt. Based on the absorbance at the time of the sample peptide addition (at the start of treatment), the percent decrease in the absorbance after 6 hours or 24 hours was determined as the cell proliferation inhibition rate (%).

HeLa cells = assay: Multipolar spindle formation, DAPI and anti-tubulin immunofluorescence microscopy; details: after 24 hours
Procedure: In addition, the cultured cells supplemented with the peptides were observed under fluorescence microscope. Herein, as for some examples, the observations on Samples 1, 9, 13, 16, 21 and 35 are outlined. In particular, each peptide was added to a peptide concentration in a well of 50 μM (Samples 1, 9) or 100 μM (Samples 13, 16, 21, 35). After 24 hours, the cultured cells were subjected to nuclear staining with DAPI (4′,6-diamidino-2-phenylindole) and observed under fluorescence microscope. As a marker for spindles, α-tubulin was used; and the cells were tested for the presence of tubulin (i.e. the presence of spindles) by immunofluorescence, using a fluorescence-labeled anti-tubulin antibody to identify the tubulin. FIGS. 1 to 6 show merged images of DAPI-stained images and fluorescence images showing the results of the immunofluorescence assays using the fluorescence-labeled anti-tubulin antibody.

[2] = test system: human alveolar basal epithelial adenocarcinoma cells, A549; details: for A450(-A620) After 24 hers: A549, peptide 50 μM, WST-8 absorbance after 24 hours; for antitumor activity (tumor cell proliferation-inhibiting activity), in words: A549, 50 μM, 24 hours, summary of Table 5
Procedure: as §1, §2, §3
Cells forming a […] (human alveolar basal epithelial adenocarcinoma cells, A549) were substituted for the tumor cells tested and the same test as Example 2 described above was carried out. In the present example, the peptides of Samples 1 to 13, 15 to 22, 24, 29, 35 and 40 were used.

HeLa cells (HeLa S3) = details: WST-8 absorbance after 24 hours
Procedure: as §1, §2, §3
HeLa cells (HeLa S3) were substituted for the tumor cells tested and the same test as Example 2 described above was carried out. In the present example, the peptides of Samples 1 to 7, 9, 10, 13, 16, 21 and 35 were used.

Compound	A450(-A620) After 24 hers ([1]; N1E-115, peptide 50 μM)	A450(-A620) After 24 hers ([1]; N1E-115, peptide 100 μM)	formation of multipolar spindles (presence of many multipolar cells) (HeLa cells; peptide 100 μM)	A450(-A620) After 24 hers [2]	A450(-A620) After 6 hers ([1]; N1E-115, peptide 50 μM)	A450(-A620) After 6 hers ([1]; N1E-115, peptide 100 μM)	A450(-A620) After 24 hers (HeLa cells (HeLa S3); HeLa S3, peptide 50 μM)	A450(-A620) After 24 hers (HeLa cells (HeLa S3); HeLa S3, peptide 100 μM)	antitumor activity (tumor cell proliferation-inhibiting activity), in words [2]	antitumor activity (tumor cell proliferation-inhibiting activity), in words ([1]; N1E-115, 50 or 100 μM, summary of Table 3)	formation of multipolar spindles (presence of many multipolar cells) (HeLa cells; peptide 50 μM)
SVSVGMKPSPRP [Sample 13, SVSVGMKPSPRP]	0.5681	0.6422	formation of multipolar spindles	1.9412							
CC(C)C[C@@H]1NC(=O)[C@H]([C@@H](C)O)NC(=O)[C@@H](N)CSSC[C@@H](C(=O)O)NC(=O)[C@H](CC(N)=O)NC(=O)[C@H](CO)NC(=O)[C@H](Cc2c[nH]cn2)NC(=O)[C@H](CO)NC(=O)[C@H](CC(N)=O)NC1=O [Sample 6, CTLNSHSNC] (H-CTLNSHSNC-OH; disulfide 1-9; N-terminus and C-terminus assumed)	0.3083	0.2830		1.4667	0.1633	0.1345	0.1174	0.0906	high antitumor activity		
CC(C)C[C@@H]1NC(=O)[C@@H]2CCCN2C(=O)[C@H](Cc2ccccc2)NC(=O)[C@H](C)NC(=O)[C@H](Cc2c[nH]c3ccccc23)NC(=O)[C@@H](N)CSSC[C@@H](C(=O)O)NC(=O)[C@H](Cc2c[nH]cn2)NC(=O)[C@H](Cc2c[nH]cn2)NC1=O [Sample 5, CWAFPLHHC] (H-CWAFPLHHC-OH; disulfide 1-9; N-terminus and C-terminus assumed)				1.8994			0.0955	0.0952			
C[C@@H]1NC(=O)[C@H](CO)NC(=O)[C@H](CO)NC(=O)[C@@H](N)CSSC[C@@H](C(=O)O)NC(=O)[C@H](CO)NC(=O)[C@H](CCCCN)NC(=O)CNC(=O)[C@H]([C@@H](C)O)NC1=O [Sample 1, CSSATGKSC] (H-CSSATGKSC-OH; disulfide 1-9; N-terminus and C-terminus assumed)	0.1578	0.1119		1.5487	0.1361	0.1104	0.1028	0.0891	high antitumor activity	high antitumor activity	formation of multipolar spindles
SVSVGMKPSPRPKKRTLRKNDRKKR [Sample 35]			formation of multipolar spindles	1.7451					high antitumor activity		
CC(C)C[C@@H]1NC(=O)[C@@H](N)CSSC[C@@H](C(=O)O)NC(=O)[C@H](CCCCN)NC(=O)[C@H](CO)NC(=O)[C@@H]2CCCN2C(=O)[C@H](CO)NC(=O)[C@@H]2CCCN2C(=O)[C@H](C)NC1=O [Sample 2, CLAPSPSKC] (H-CLAPSPSKC-OH; disulfide 1-9; N-terminus and C-terminus assumed)	0.3926	0.3764		1.8971	0.2235	0.2094	0.0924	0.0739			
GPHHYWYHLRLP [Sample 16, GPHHYWYHLRLP]	0.6912	0.6048	formation of multipolar spindles	1.7309							
CC(C)C[C@@H]1NC(=O)[C@H](CO)NC(=O)[C@@H]2CCCN2C(=O)[C@@H]2CCCN2C(=O)[C@H](CCCNC(=N)N)NC(=O)[C@@H]2CCCN2C(=O)[C@@H](N)CSSC[C@@H](C(=O)O)NC(=O)[C@H](CCC(=O)O)NC1=O [Sample 9, CPRPPSLEC] (H-CPRPPSLEC-OH; disulfide 1-9; N-terminus and C-terminus assumed)				1.8645			0.1366	0.0892			formation of multipolar spindles
CC[C@H](C)[C@@H]1NC(=O)[C@H](CCC(=O)O)NC(=O)[C@@H](N)CSSC[C@@H](C(=O)O)NC(=O)[C@H]([C@@H](C)O)NC(=O)[C@H](CCCNC(=N)N)NC(=O)[C@H](CCCCN)NC(=O)[C@H](C)NC(=O)[C@H](CO)NC1=O [Sample 7, CEISAKRTC] (H-CEISAKRTC-OH; disulfide 1-9; N-terminus and C-terminus assumed)				1.6822			0.1508	0.1081			
GPHLGMNQRRRP [Sample 21, GPHLGMNQRRRP]	0.5284	0.5810	formation of multipolar spindles	1.5672					high antitumor activity		
N=C(N)NCCC[C@@H]1NC(=O)[C@H](Cc2c[nH]cn2)NC(=O)CNC(=O)[C@@H](N)CSSC[C@@H](C(=O)O)NC(=O)[C@H](Cc2ccc(O)cc2)NC(=O)[C@H](CCC(N)=O)NC(=O)[C@H](Cc2ccc(O)cc2)NC(=O)[C@@H]2CCCN2C1=O [Sample 4, CGHRPYQYC] (H-CGHRPYQYC-OH; disulfide 1-9; N-terminus and C-terminus assumed)				1.7663			0.0955	0.0937			
